From ChEMBL document CHEMBL6120940, “Discovery of N-Aryl-N'-[4-(aryloxy)cyclohexyl]squaramide-Based Inhibitors of LXR/SREBP-1c Signaling Pathway Ameliorating Steatotic Liver Disease: Navigating the Role of SIRT6 Activation” (J Med Chem, 2024)
Active and inactive are the calls of the source. The calls are words filed in the database; no cut-off is given here.

How the values were obtained:
HepG2 [1] = assay: Downregulation of acetylated histone H3K9 level in human HepG2 cells preincubated for 30 mins followed by GW3965 addition and measured after 12 hrs; type: functional, cell-based; conditions: dose 5-10 µM, time 12.5 hrs
[2] = Metabolic stability in mouse liver microsomes at 1 uM measured after 30 mins in presence of NADPH regeneration system by LC-MS/MS analysis; type: ADME, Microsome; conditions: read-out: Stability
Hepatocyte = assay: Effect on Cpt1 gene expression in mouse hepatocyte; type: functional, cell-based
[3] = biological target: Voltage-gated inwardly rectifying potassium channel KCNH2 (Homo sapiens, UniProt Q12809); assay: Inhibition of human ERG expressing HEK cells by whole-cell patch clamp assay; type: toxicity, cell-based
[4] = biological target: T1, Oxysterols receptor LXR-alpha (Homo sapiens) (UniProt Q13133); assay: Inhibition of LXRalpha in human HepG2 cells expressing LXRE at 2.5 to 5 uM preincubated for 30 mins followed by T0901317 addition and measured after 24 hrs by Dual-glo luciferase assay; type: cell-based; conditions: dose 2.5-5 µM, time 24.5 hrs
T1 sequence (whole entry): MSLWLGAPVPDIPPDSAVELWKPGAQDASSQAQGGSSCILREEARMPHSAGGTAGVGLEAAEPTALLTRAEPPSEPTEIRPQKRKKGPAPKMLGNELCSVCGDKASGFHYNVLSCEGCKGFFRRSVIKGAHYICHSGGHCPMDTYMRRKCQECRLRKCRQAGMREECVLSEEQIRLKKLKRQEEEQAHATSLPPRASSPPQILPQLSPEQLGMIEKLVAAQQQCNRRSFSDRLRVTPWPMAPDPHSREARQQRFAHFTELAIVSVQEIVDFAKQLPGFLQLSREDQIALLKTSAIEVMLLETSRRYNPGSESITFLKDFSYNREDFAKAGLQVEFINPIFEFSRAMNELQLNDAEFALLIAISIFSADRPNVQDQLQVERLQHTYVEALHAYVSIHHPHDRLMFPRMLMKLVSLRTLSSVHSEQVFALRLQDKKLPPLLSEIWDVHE

CYP3A4 = CYP3A4 (Homo sapiens, UniProt P08684); assay: Inhibition of CYP3A4 in human liver microsomes at 10 uM using midazolam as substrate preincubated for 5 mins followed by NADPH generating system addition and measured after 15 mins relative to control; type: ADME, Microsome; conditions: probe midazolam, time 20 min
HepG2 [5] = assay: Downregulation of LXR level in human HepG2 cells at 10 uM preincubated for 30 mins followed by OSS128167 addition and measured after 12 hrs; type: functional, cell-based; conditions: time 12.5 hrs
[6] = biological target: T2, Sterol regulatory element-binding protein 1 (Homo sapiens) (UniProt P36956); assay: Inhibition of SREBP-1c transcriptional activity in human HepG2 cells expressing LXRalpha/RXRalpha assessed as reduction in SRE-luciferase level at 10 uM pretreated with compound for 30 mins followed by T0901317 addition and measured after 12 hrs by Dual-Glo luciferase assay relative to control; type: cell-based; conditions: time 12.5 hrs
T2 sequence (whole entry): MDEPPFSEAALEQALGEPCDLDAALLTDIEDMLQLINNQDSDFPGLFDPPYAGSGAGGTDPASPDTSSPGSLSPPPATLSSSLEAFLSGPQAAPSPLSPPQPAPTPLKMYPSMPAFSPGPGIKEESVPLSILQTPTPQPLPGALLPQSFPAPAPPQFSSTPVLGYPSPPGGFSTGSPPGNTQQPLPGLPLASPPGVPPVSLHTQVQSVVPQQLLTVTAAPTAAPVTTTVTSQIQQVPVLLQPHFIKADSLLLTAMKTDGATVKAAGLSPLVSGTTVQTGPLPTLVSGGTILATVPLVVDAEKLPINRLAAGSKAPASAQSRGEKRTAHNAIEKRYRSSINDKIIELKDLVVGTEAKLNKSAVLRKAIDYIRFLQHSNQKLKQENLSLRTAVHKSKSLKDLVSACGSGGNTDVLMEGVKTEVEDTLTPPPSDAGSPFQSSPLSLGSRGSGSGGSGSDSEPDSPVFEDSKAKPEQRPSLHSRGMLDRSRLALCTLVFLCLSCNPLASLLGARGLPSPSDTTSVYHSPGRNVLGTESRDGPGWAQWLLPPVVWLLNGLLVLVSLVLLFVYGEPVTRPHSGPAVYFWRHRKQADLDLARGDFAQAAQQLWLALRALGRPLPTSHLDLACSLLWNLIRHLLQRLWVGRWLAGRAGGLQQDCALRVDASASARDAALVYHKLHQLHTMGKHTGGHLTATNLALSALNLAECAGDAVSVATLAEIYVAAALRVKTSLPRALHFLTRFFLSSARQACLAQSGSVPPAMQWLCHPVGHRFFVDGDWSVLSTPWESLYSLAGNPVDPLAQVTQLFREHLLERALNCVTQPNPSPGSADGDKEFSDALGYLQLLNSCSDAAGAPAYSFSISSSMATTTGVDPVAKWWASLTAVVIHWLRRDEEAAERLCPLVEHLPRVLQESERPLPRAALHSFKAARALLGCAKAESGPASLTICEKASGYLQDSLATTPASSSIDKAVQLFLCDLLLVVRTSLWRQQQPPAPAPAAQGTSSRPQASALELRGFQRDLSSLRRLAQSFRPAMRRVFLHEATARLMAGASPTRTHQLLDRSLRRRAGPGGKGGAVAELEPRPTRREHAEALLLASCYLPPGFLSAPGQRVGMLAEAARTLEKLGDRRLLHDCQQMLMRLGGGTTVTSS

[7] = MRT infinity in 16 hrs fasted ICR mouse at 20 mg/kg, po measured upto 8 hrs by LC-MS/MS analysis; type: ADME, organism-based; conditions: in vivo
HepG2 [8] = assay: Downregulation of LXRalpha expression level in nucleus of human HepG2 cells at 10 uM preincubated with compound for 30 mins followed by T0901317 addition and measured after 24 hrs by immunoblot analysis; type: functional, cell-based; conditions: time 24.5 hrs
HepG2 [9] = assay: Downregulation of SCD mRNA level in human HepG2 cells at 10 uM pretreated with compound for 30 mins followed by GW2935 addition and measured after 12 hrs by RT-qPCR analysis; type: functional, cell-based; conditions: time 12.5 hrs
HepG2 [10] = assay: Downregulation of SREBP-1 level in human HepG2 cells transfected with SIRT6 SiRNA at 10 uM preincubated for 30 mins followed by T0901317 addition and measured after 12 hrs; type: functional, cell-based; conditions: time 12.5 hrs

Chain of CYP3A4 (P08684 whole entry): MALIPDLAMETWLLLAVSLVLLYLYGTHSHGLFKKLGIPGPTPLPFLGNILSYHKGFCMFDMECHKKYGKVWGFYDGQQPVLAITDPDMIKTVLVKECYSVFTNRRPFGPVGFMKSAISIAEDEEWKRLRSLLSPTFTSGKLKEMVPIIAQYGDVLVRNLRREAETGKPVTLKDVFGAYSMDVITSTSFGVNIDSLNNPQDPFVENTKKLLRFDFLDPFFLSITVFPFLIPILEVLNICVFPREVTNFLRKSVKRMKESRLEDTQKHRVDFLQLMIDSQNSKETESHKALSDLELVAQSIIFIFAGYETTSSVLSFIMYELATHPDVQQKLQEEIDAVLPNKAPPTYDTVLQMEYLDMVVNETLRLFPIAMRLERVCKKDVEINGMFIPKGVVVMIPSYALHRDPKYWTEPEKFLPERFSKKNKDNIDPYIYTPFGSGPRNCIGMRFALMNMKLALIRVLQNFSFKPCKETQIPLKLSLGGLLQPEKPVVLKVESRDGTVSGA
Chain of Voltage-gated inwardly rectifying potassium channel KCNH2 (Q12809 whole entry): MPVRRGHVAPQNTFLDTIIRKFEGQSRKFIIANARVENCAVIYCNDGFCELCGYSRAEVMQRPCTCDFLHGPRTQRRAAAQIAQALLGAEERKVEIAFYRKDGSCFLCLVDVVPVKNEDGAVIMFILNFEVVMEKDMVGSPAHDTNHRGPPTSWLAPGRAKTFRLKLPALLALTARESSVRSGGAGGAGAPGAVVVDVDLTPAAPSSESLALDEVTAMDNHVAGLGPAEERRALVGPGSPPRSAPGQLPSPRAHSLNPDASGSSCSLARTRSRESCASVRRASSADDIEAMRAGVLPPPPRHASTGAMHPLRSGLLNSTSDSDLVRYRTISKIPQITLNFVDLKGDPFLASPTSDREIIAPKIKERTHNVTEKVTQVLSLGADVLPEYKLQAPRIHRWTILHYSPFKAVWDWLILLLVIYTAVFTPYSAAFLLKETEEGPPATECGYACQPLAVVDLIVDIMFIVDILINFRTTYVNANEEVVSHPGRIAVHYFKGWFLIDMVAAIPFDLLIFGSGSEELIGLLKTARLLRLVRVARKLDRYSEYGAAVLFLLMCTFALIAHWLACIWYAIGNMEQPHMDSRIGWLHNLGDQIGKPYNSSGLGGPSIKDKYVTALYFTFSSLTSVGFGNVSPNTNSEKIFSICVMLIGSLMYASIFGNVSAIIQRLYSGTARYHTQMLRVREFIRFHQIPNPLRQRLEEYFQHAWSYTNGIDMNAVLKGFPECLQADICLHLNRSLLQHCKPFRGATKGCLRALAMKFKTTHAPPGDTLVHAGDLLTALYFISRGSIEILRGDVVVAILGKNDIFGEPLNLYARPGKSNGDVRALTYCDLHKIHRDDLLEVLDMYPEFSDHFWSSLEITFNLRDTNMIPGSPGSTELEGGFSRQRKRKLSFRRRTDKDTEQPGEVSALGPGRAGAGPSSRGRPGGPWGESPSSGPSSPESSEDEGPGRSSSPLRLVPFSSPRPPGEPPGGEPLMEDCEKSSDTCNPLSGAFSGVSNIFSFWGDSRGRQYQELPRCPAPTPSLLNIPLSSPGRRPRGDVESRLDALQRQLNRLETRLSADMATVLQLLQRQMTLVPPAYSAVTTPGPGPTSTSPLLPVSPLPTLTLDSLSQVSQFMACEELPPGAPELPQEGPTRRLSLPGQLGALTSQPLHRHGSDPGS

remaining at 0.5 h, 1 µM [2]: 46.9% | inhibition [4]: Active | inhibition at 0.25 h, 10 µM (CYP3A4): 91.6% | inhibition [6]: 27.7% | MRT inf [7]: 1.6 h
SMILES: COc1ccccc1Nc1c(N[C@H]2CC[C@H](Oc3ccc([N+](=O)[O-])cc3)CC2)c(=O)c1=O
Activity (HepG2 [1]): Dose-dependent-effect | Activity (Hepatocyte): inactive | IC50 [3]: 33.2 µM | Activity (HepG2 [5]): inactive | Activity (HepG2 [8]): Active | Activity (HepG2 [9]): Active | Activity (HepG2 [10]): inactive
